Values of other authors, collected in US20170002355A1, “cGAP-PNA MULTIVALENT PEPTIDE NUCLEIC ACID LIGAND DISPLAY” (THE USA, AS REPRESENTED BY THE SECRETARY, DEPART- MENT OF …, priority 2014, published 2017).

Assays:
[1] = biological target: T1, hA1AR (Homo sapiens, UniProt P30542); conditions: published literature values of XAC (Kecskes et al. 2011)
T1 construct: expressed in transfected cells
T1 sequence (P30542 1-326): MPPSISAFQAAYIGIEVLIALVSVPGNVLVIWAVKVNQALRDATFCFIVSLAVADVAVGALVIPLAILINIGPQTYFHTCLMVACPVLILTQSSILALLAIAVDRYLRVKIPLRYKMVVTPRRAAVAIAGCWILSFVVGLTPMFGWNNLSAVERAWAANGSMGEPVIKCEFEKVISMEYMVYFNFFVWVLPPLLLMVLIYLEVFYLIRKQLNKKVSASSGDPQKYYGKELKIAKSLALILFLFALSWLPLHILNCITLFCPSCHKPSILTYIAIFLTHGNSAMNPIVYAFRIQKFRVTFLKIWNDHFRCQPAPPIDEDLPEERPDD

[2] = biological target: T2, hA3AR (Homo sapiens, UniProt P0DMS8); conditions: published literature values of XAC (Kecskes et al. 2011)
T2 construct: expressed in transfected cells
T2 sequence (P0DMS8 1-318): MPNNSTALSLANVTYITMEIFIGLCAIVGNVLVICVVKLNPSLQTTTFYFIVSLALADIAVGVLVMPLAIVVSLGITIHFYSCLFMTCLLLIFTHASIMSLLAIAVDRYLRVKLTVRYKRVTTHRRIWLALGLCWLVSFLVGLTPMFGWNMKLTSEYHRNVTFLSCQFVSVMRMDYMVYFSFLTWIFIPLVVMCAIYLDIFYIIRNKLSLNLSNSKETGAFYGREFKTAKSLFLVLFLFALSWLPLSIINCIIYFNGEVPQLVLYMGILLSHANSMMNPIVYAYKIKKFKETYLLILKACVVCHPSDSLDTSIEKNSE

CCCn1c(=O)c2[nH]c(-c3ccc(OCC(=O)NCCN)cc3)nc2n(CCC)c1=O [XAC, N-(2-aminoethyl)-2-[4-(2,3,6,7-tetrahydro-2,6-dioxo-1,3-dipropyl-1H-purin-8-yl)phenoxy]-acetamide]
A1:A2A selectivity, literature [1]: 1.4 | A3:A2A selectivity, literature [2]: 2.4
